We go through four compounds from patent US11713302B2, “Sulfonamide benzamide derivative and preparation method and application thereof” (WEIFANG MEDICAL UNIVERSITY, priority 2021, dated 2023).

Data set [1] has as its system HBV DNA. The data set is described as follows: HBV DNA activity inhibition assay (quantitative PCR) in HepAD38 cells. It is filed as cell-based, hepatitis B virus (HBV). The protocol:
(§1) HBV stably transfected hepatocellular carcinoma cell line, HepAD38, was able to secrete HBV viral particles (containing HBsAg, HBeAg and DNA) when the cells were cultured. The amount of HBsAg and HBeAg secreted by the cells and the DNA produced varied under the intervention of anti-HBV target compounds, so the antiviral activity of the sample drug could be calculated by measuring the amount of HBsAg and HBeAg secreted by the cells into the culture supernatant and the HBV DNA produced, with reference to the amount in the unspiked control. Using entecavir as a positive control drug, the concentration of the drug at 50% inhibition of HBV DNA was measured by quantitative PCR at the value of IC50; the concentration of the sample drug causing 50% cell death was measured by CCK-8 at the value of CC50, and the “selectivity index” of the compound to be tested was calculated. SI=CC50/IC50. (1) Cytotoxicity assay
(2) HBV DNA Activity Inhibition Assay (Quantitative PCR Method)
HepAD38 cells were cultured in 96-well cell culture plate for 24 hours, then 10 μM, 2 μM, 0.4 μM, 0.08 μM and […] drug-containing medium was added and the cells were incubated for 10 days (changed every 2 days), the supernatant was collected and the supernatant HBV DNA content was measured by quantitative PCR.

Data set [2] is described as follows: Cytotoxicity assay (CCK-8) in HepAD38 cells. It is filed as cell-based. To be noted: human. On the procedure:
as §1
(§2) Each sample was prepared with HepAD38 cell culture medium at a diluted concentration (1 μM) for preliminary activity screening, and a blank control was set up and a positive control drug was added to the 96-well cell culture plate with 3 replicate wells per concentration, and the same concentration was changed every 2 days and a drug-free cell control group was set up for 10 days. Cell viability was measured by CCK-8 assay to determine the toxicity of the drug to HepAD38 cells. Five dilutions (10 μM, 2 μM, 0.4 μM, 0.08 μM and […]) were prepared in HepAD38 cell culture medium for compounds with low toxicity, and a blank control and entecavir and lead compound 5a were used as positive control drugs. Cell culture plates were added to 96-well plates with 3 replicate wells per concentration, and the same concentration was changed every 2 days and a drug-free cell control group was set up for 10 days. Cell viability was measured by CCK-8 assay to determine the toxicity of the drug on HepAD38 cells.

For data set [3], the system named is HepAD38 cells. The data set is described as follows: Cytotoxicity assay (CCK-8) in HepAD38 cells. In kind it is cell-based. The note with it: CCK-8, 10 days. The protocol: as §1, §2
The mark [4] stands for this setting: Hepatitis B virus, 240 h, supernatant HBV DNA, HepAD38 cells, quantitative PCR, 10 days, read-out: EC50.
Where [5] appears, read: Hepatitis B virus, 240 h, supernatant HBV DNA, HepAD38 cells, quantitative PCR, 10 days, read-out: IC90.
Setting [6] is: Hepatitis B virus, HePAD38, 240 h.

pEC50, pIC50: −log10 of the molar value. Like-named read-outs stand apart in the source and are kept apart here.

What is called pEC50 is the negative decadic logarithm of the EC50, by convention in mol/L. As usually defined, the IC90 is the concentration at which the effect reaches the 90% level. The CC50 is the concentration giving 50% cytotoxicity. Low values mean greater toxicity to the cells, high ones lower toxicity to the cells. On to `O=C(Nc1ccc(F)c(Cl)c1)c1cc(S(=O)(=O)NC2CCCC2)cc2c1OCCO2` [Compound 5b], for which the pEC50 in data set [1] (setting [4]) is 8.60. Besides, the IC90 in data set [1] (setting [5]) was 293 nM. The “inhibition of HBV DNA replication activity (initial screening)” value (shortened to “inhibition”) in data set [1] (quantitative PCR) was “good HBV DNA replication inhibitory activity”. Besides, the CC50 at 10 days in data set [2] (CCK-8) was more than 10000 nM. The CC50 in data set [3] was more than 10000 nM.
`O=C(Nc1ccc(F)c(Cl)c1)c1cc(S(=O)(=O)NC2CCCCC2)cc2c1OCCO2` [Compound 5c]: the negative-log EC50 (pEC50) in data set [1] (setting [4]) was 7.83. In addition, the 90% effect concentration (IC90) in data set [1] (setting [5]) was 430 nM. Moreover, the “inhibition” value in data set [1] (quantitative PCR) is “good HBV DNA replication inhibitory activity”. Besides, the 50% cytotoxic concentration (CC50) at 10 days in data set [2] (CCK-8) was more than 10000 nM. This compound gave a half-maximal cytotoxic concentration (CC50) in data set [3] of more than 10000 nM.
What is called pIC50 is the negative decadic logarithm of the IC50, by convention in mol/L. Turning to `CC(C)NS(=O)(=O)c1cc2c(c(C(=O)Nc3ccc(F)c(Cl)c3)c1)OCCO2` [Compound 5k], the pEC50 in data set [1] (setting [4]) was 9.02. Besides, the 90% effect concentration (IC90) in data set [1] (setting [5]) was 99 nM. Further, the negative-log IC50 (pIC50) in data set [1] (Hepatitis B virus, HePAD38, quantitative PCR, read-out: IC50 (anti-HBV DNA replication activity)) was 9.02. In data set [1] (quantitative PCR), the “inhibition” value is reported as “good HBV DNA replication inhibitory activity”. The same compound displayed a CC50 at 10 days in data set [2] (CCK-8) of more than 10000 nM. In addition, the CC50 in data set [3] is more than 10000 nM.
In data set [1] (setting [6]), `C=C1[C@H](CO)[C@@H](O)C[C@@H]1n1cnc2c(=O)[nH]c(N)nc21` [ETV, entecavir, reference compound] had a pEC50 of 9.92 and an IC90 of 21 nM. The compound further registered a CC50 at 10 days in data set [2] (CCK-8, 10 days) of more than 10000 nM.
